Assay results from US8383683B2, “Pharmaceutical use of substituted amides” (High Point Pharmaceuticals, LLC, priority 2007, dated 2013).

Target: 11βHSD1 (Homo sapiens, UniProt P28845)
Test: 11βHSD1 enzyme assay (SPA, 3H-cortisone to 3H-cortisol)
Assay type: biochemical
Parameters: An extract of yeast transformed with h-11βHSD1 (Hutt et al., FEBS Lett., 441, 25 (1998)) was used as the source of enzyme; made in house
Conditions: extract of yeast transformed with h-11βHSD1; 120 nM 3H-cortisone, 4 mM β-NADPH, 60 min at 30° C.
Method: Pharmacological Methods 11βHSD1 Enzyme Assay Materials
^3H-cortisone and anti-rabbit Ig coated scintillation proximity assay (SPA) beads were purchased from Amersham Pharmacia Biotech, β-NADPH was from Sigma and rabbit anti-cortisol antibodies were from Fitzgerald. An extract of yeast transformed with h-11βHSD1 (Hutt et al., FEBS Lett., 441, 25 (1998)) was used as the source of enzyme. The test compounds were dissolved in DMSO (10 mM). All dilutions were performed in a buffer containing 50 mM TRIS-HCl (Sigma Chemical Co), 4 mM EDTA (Sigma Chemical Co), 0.1% BSA (Sigma Chemical Co), 0.01% Tween-20 (Sigma Chemical Co) and 0.005% bacitracin (Novo Nordisk NS), pH=7.4. Optiplate 96 wells plates were supplied by Packard. The amount of ^3H-cortisol bound to the SPA beads was measured on TopCount NXT, Packard.
h-11βHSD1, 120 nM ^3H-cortisone, 4 mM β-NADPH, antibody (1:200), serial dilutions of test compound and SPA particles (2 mg/well) were added to the wells. The reaction was initiated by mixing the different components and was allowed to proceed under shaking for 60 min at 30° C. The reaction was stopped be the addition of 10 fold excess of a stopping buffer containing 500 μM carbenoxolone and 1 μM cortisone. Data was analysed using GraphPad Prism software.

Sequence of 11βHSD1 (P28845 whole entry): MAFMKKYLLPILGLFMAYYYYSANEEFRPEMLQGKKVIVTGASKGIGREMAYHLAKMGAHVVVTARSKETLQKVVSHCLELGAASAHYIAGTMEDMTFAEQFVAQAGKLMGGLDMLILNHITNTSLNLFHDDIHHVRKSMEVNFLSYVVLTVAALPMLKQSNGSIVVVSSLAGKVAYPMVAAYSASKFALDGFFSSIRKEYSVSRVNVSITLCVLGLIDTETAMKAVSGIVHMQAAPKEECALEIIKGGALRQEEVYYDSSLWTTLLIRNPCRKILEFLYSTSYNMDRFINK

| IC50 [nM] | SMILES |
| --- | --- |
| 1 | O=C(CCCOc1ccc(Cl)cc1Cl)NC12CC3CC(CC(CO)(C3)C1)C2 [Example 1-28, 4-(2,4-Dichloro-phenoxy)-N-(3-hydroxy-methyl-adamantan-1-yl)-butyramide] |
| 14 | O=C(CCCOc1ccc(Cl)cc1Cl)N1CC2CCC1C2O (stereo not shown) [Example 1-29, 4-(2,4-Dichloro-phenoxy)-1-(7-hydroxy-2-aza-bicyclo[2.2.1]hept-2-yl)-butan-1-one] |
| 10 | COC(=O)C12CC3CC(CC(NC(=O)CCCOc4ccc(Cl)cc4Cl)(C3)C1)C2 [Example 1-30, 3-[4-(2,4-Dichloro-phenoxy)-butyrylamino]-adamantane-1-carboxylic acid methyl ester] |
| 11 | O=C(CCCOc1ccc(Cl)cc1Cl)NC12CC3CC(C1)CC(C(=O)O)(C3)C2 [Example 1-31, 3-[4-(2,4-Dichloro-phenoxy)-butyrylamino]-adamantane-1-carboxylic acid] |
| 4 | CN(C(=O)CCCOc1ccc(Cl)cc1Cl)C1C2CC3CC1CC(O)(C3)C2 (stereo not shown) [Example 1-32, 4-(2,4-Dichloro-phenoxy)-N-(5-hydroxy-adamantan-2-yl)-N-methyl-butyramide] |
| 7 | CCN(C(=O)CCCOc1ccc(Cl)cc1Cl)C1C2CC3CC1CC(O)(C3)C2 (stereo not shown) [Example 1-33, 4-(2,4-Dichloro-phenoxy)-N-ethyl-N-(5-hydroxy-adamantan-2-yl)-butyramide] |
| 172 | CCN(C(=O)CCCOc1ccc(Cl)cc1Cl)C1C2CC3CC1CC(O)(C3)C2 (stereo not shown) [Example 1-34, 4-(2,4-Dichloro-phenoxy)-N-ethyl-N-(5-hydroxy-adamantan-2-yl)-butyramide] |
| 252 | O=C(CCCOc1ccc(Cl)cc1Cl)N1CC2CCC(C1)C2O (stereo not shown) [Example 1-35, 4-(2,4-Dichloro-phenoxy)-1-(8-hydroxy-3-aza-bicyclo[3.2.1]oct-3-yl)-butan-1-one] |
| 397 | O=C(CCCOc1ccc(Cl)cc1Cl)N1CC2CCC1CC2O (stereo not shown) [Example 1-36, 4-(2,4-Dichloro-phenoxy)-1-(5-hydroxy-2-aza-bicyclo[2.2.2]oct-2-yl)-butan-1-one] |
| 1820 | CN(C(=O)CCCOc1ccccc1)C1CCC(O)CC1 (stereo not shown) [Example 1-37, N-(4-Hydroxy-cyclohexyl)-N-methyl-4-phenoxy-butyramide] |
| 50 | O=C(CCCOc1ccccc1)NC1C2CC3CC1CC(O)(C3)C2 (stereo not shown) [Example 1-39, N-(5-Hydroxy-adamantan-2-yl)-4-phenoxy-butyramide] |
| 1340 | CN(C(=O)CCCOc1ccccc1)C1C2CC3CC1CC(O)(C3)C2 (stereo not shown) [Example 1-42, N-(5-Hydroxy-adamantan-2-yl)-N-methyl-4-phenoxy-butyramide] |
| 58 | CN(C(=O)CCCOc1ccccc1)C1C2CC3CC1CC(O)(C3)C2 (stereo not shown) [Example 1-43, N-(5-Hydroxy-adamantan-2-yl)-N-methyl-4-phenoxy-butyramide] |
| 9 | O=C(CCCOc1ccccc1)NC12CC3CC(CC(CO)(C3)C1)C2 [Example 1-45, N-(3-Hydroxymethyl-adamantan-1-yl)-4-phenoxy-butyramide] |
| 1510 | O=C(CCCOc1ccccc1)N1CC2CC1CC2O (stereo not shown) [Example 1-46, 1-(5-Hydroxy-2-aza-bicyclo[2.2.1]hept-2-yl)-4-phenoxy-butan-1-one] |
| 1080 | O=C(CCCOc1ccccc1)N1CC2CCC1C2O (stereo not shown) [Example 1-48, 1-(7-Hydroxy-2-aza-bicyclo[2.2.1]hept-2-yl)-4-phenoxy-butan-1-one] |
| 141 | CC(C)N(C(=O)CCCOc1ccccc1)C1C2CC3CC1CC(O)(C3)C2 (stereo not shown) [Example 1-49, N-(5-Hydroxy-adamantan-2-yl)-N-isopropyl-4-phenoxy-butyramide] |
| 61 | CCN(C(=O)CCCOc1ccccc1)C1C2CC3CC1CC(O)(C3)C2 (stereo not shown) [Example 1-51, N-Ethyl-N-(5-hydroxy-adamantan-2-yl)-4-phenoxy-butyramide] |
| 54 | COC(=O)C12CC3CC(CC(NC(=O)CCCOc4ccccc4)(C3)C1)C2 [Example 1-52, 3-(4-Phenoxy-butyryl-amino)-adamantane-1-carboxylic acid methyl ester] |
| 194 | O=C(CCCOc1ccccc1)NC12CC3CC(C1)CC(C(=O)O)(C3)C2 [Example 1-53, 3-(4-Phenoxy-butyryl-amino)-adamantane-1-carboxylic acid] |

| IC50 [nM] | SMILES |
| --- | --- |
| 10 | O=C(CCCOc1ccccc1)NC1C2CC3CC1CC(CO)(C3)C2 (stereo not shown) [Example 1-54, N-(5-Hydroxymethyl-adamantan-2-yl)-4-phenoxy-butyramide] |
| 2 | O=C(CCCOc1ccc(Cl)cc1Cl)NC1C2CC3CC1CC(CO)(C3)C2 (stereo not shown) [Example 1-55, 4-(2,4-Dichloro-phenoxy)-N-(5-hydroxy-methyl-adamantan-2-yl)-butyramide] |
| 322 | CC(C)N(C(=O)CCCOc1ccc(Cl)cc1Cl)C1C2CC3CC1CC(O)(C3)C2 (stereo not shown) [Example 1-56, 4-(2,4-Dichloro-phenoxy)-N-(5-hydroxy-adamantan-2-yl)-N-isopropyl-butyramide] |
| 628 | CN(C(=O)CCCOc1ccc(Cl)cc1Cl)[C@H]1CCCC[C@@H]1O [Example 1-57, 4-(2,4-Dichloro-phenoxy)-N-((1S,2S)-2-hydroxy-cyclohexyl)-N-methyl-butyramide] |
| 55 | CN(C(=O)CCCOc1ccc(Cl)cc1Cl)C1CCCC(C(=O)O)C1 (stereo not shown) [Example 1-58, 3-{[4-(2,4-Dichloro-phenoxy)-butyryl]-methyl-amino}-cyclo-hexanecarboxylic acid] |
| 3 | CN(C(=O)CCCOc1ccc(Cl)cc1Cl)C1CCCC(CO)C1 (stereo not shown) [Example 1-59, 4-(2,4-Dichloro-phenoxy)-N-(3-hydroxy-methyl-cyclo-hexyl)-N-methyl-butyramide] |
| 1 | CN(C(=O)CCCOc1ccc(Cl)cc1Cl)C1CCC(CO)CC1 (stereo not shown) [Example 1-60, 4-(2,4-Dichloro-phenoxy)-N-(4-hydroxy-methyl-cyclohexyl)-N-methyl-butyramide] |
| 56 | CN(C(=O)CCCOc1ccc(Cl)cc1Cl)C1CCCC(O)C1 (stereo not shown) [Example 1-61, 4-(2,4-Dichloro-phenoxy)-N-(3-hydroxy-cyclohexyl)-N-methyl-butyramide] |
| 123 | CN(C(=O)CCCOc1ccc(Cl)cc1Cl)[C@H]1CCCC[C@@H]1CO [Example 1-62, 4-(2,4-Dichloro-phenoxy)-N-((S)-2-hydroxymethyl-cyclo-hexyl)-N-methyl-butyramide] |
| 2 | CN(C(=O)CCCOc1ccc(Cl)cc1Cl)C1CC2CC1CC2O (stereo not shown) [Example 1-64, 4-(2,4-Dichloro-phenoxy)-N-(5-hydroxy-bicyclo[2.2.1]hept-2-yl)-N-methyl-butyramide] |
| 4 | CN(C(=O)CCCOc1ccc(Cl)cc1Cl)C1C2CC3CC1CC(CO)(C3)C2 (stereo not shown) [Example 1-65, 4-(2,4-Dichloro-phenoxy)-N-(5-hydroxy-methyl-adamantan-2-yl)-N-methyl-butyramide] |
| 3 | COC(=O)C12CC3CC(CN(C(=O)CCCOc4ccc(Cl)cc4Cl)C(C3)C1)C2 (stereo not shown) [Example 1-66, 4-[4-(2,4-Dichloro-phenoxy)-butyryl]-4-aza-tricyclo[4.3.1.1{3,8}]-undecane-1-carboxylic acid methyl ester] |
| 25 | O=C(CCCOc1ccc(Cl)cc1Cl)N1CC2CC3CC1CC(C(=O)O)(C3)C2 (stereo not shown) [Example 1-67, 4-[4-(2,4-Dichloro-phenoxy)-butyryl]-4-aza-tricyclo[4.3.1.1{3,8}]-undecane-1-carboxylic acid] |
| 17 | COC(=O)C12CC3CC(C1)C(NC(=O)CCCOc1ccc(Cl)cc1Cl)C(C3)C2 (stereo not shown) [Example 1-68, 4-[4-(2,4-Dichloro-phenoxy)-butyrylamino]-adamantane-1-carboxylic acid methyl ester] |
| 2 | CN(C(=O)CCCOc1ccc(Cl)cc1Cl)C1CCC(S(N)(=O)=O)CC1 (stereo not shown) [Example 1-69, 4-(2,4-Dichloro-phenoxy)-N-methyl-N-(4-sulfamoyl-cyclohexyl)-butyramide] |
| 479 | CN(C(=O)CCCOc1ccc(Cl)cc1Cl)C1CCC(S(=O)(=O)N(C)C)CC1 (stereo not shown) [Example 1-70, 4-(2,4-Dichloro-phenoxy)-N-(4-dimethyl-sulfamoyl-cyclohexyl)-N-methyl-butyramide] |
| 21 | CN(C(=O)CCCOc1ccc(Cl)cc1Cl)C1CCC(S(=O)(=O)N(C)C)CC1 (stereo not shown) [Example 1-71, 4-(2,4-Dichloro-phenoxy)-N-(4-dimethyl-sulfamoyl-cyclohexyl)-N-methyl-butyramide] |
| 198 | CCOC(=O)C12CCC(NC(=O)CCCOc3ccc(Cl)cc3Cl)(CC1)CC2 [Example 1-72, 4-[4-(2,4-Dichloro-phenoxy)-butyrylamino]-bicyclo[2.2.2]octane-1-carboxylic acid ethyl ester] |
| 1 | O=C(CCCOc1ccc(Cl)cc1Cl)NC12CCC(CO)(CC1)CC2 [Example 1-73, 4-(2,4-Dichloro-phenoxy)-N-(4-hydroxy-methyl-bicyclo[2.2.2]oct-1-yl)-butyramide] |
| 809 | CN(C(=O)CCCOc1ccc(Cl)cc1Cl)C1CCC(C(=O)O)CC1 (stereo not shown) [Example 1-74, 4-{[4-(2,4-Dichloro-phenoxy)-butyryl]-methyl-amino}-cyclo-hexanecarboxylic acid] |
